Data: US8952024B2, “Herbicidal pyrimidone derivatives” (E I du Pont de Nemours and Company, priority 2009, dated 2015)

Tests used:
Assay type in all cases: in vivo
[1] = tested on: barnyardgrass (Echinochloa crus-galli); assay: Test A pre-/postemergence plant response
Method in brief: (§1)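 Plants grown from seed in a loam soil and sand mix received test compounds both as a preemergence soil spray and, at the same time, as a postemergence spray at the one- to two-leaf stage. Injury was judged visually against untreated controls roughly ten days later, 0 meaning no effect and 100 complete control.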

corn (Zea mays) = assay: Test A pre-/postemergence plant response
Method in brief: as §1

[2] = tested on: giant foxtail (Setaria faberii); assay: Test A pre-/postemergence plant response
Method in brief: as §1

[3] = tested on: large crabgrass (Digitaria sanguinalis); assay: Test A pre-/postemergence plant response
Method in brief: as §1

[4] = tested on: morningglory (Ipomoea spp.); assay: Test A pre-/postemergence plant response
Method in brief: as §1

[5] = tested on: pigweed (Amaranthus retroflexus); assay: Test A pre-/postemergence plant response
Method in brief: as §1

[6] = tested on: velvetleaf (Abutilon theophrasti); assay: Test A pre-/postemergence plant response
Method in brief: as §1

[7] = tested on: wheat (Triticum aestivum); assay: Test A pre-/postemergence plant response
Method in brief: as §1

[8] = tested on: winter barley (Hordeum vulgare); assay: Test B postemergence plant response; conditions: Postemergence; for Barley plant response rating: 250 g ai/ha, scale 0 to 100
Method in brief: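 Visual ratings from 0 (no effect) to 100 (complete control), made against controls 13–15 days after treatment, kept in a greenhouse. Compounds were applied postemergence to potted plants at the 1- to 4-leaf stage (2–18 cm).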

[9] = tested on: barnyardgrass (Echinochloa crus-galli); assay: Test B flooded paddy test; conditions: for Plant response rating, Flood, Barnyardgrass: 250 g ai/ha, flooded paddy test, visual rating on 0 to 100 scale (0 no effect, 100 complete control) after 13 to 15 days; for Plant response rating, Barnyardgrass: Flood (flooded paddy test), 13 to 15 days
Method in brief: (§2)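 Rice, umbrella sedge, ducksalad and barnyardgrass were grown to the 2-leaf stage, flooded to 3 cm, and compound was applied directly to the paddy water, with that depth kept throughout. After 13 to 15 days in the greenhouse, plants were visually rated against controls on a 0 (no effect) to 100 (complete control) scale.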

[10] = tested on: ducksalad (Heteranthera limosa); assay: Test B flooded paddy test; conditions: for Plant response rating, Flood, Ducksalad: 250 g ai/ha, flooded paddy test, visual rating on 0 to 100 scale (0 no effect, 100 complete control) after 13 to 15 days; for Plant response rating, Ducksalad: Flood (flooded paddy test), 13 to 15 days
Method in brief: as §2

rice (Oryza sativa) = assay: Test B flooded paddy test; conditions: for Plant response rating, Flood, Rice: 250 g ai/ha, flooded paddy test, visual rating on 0 to 100 scale (0 no effect, 100 complete control) after 13 to 15 days; for Plant response rating, Rice: Flood (flooded paddy test), 13 to 15 days
Method in brief: as §2

[11] = tested on: umbrella sedge (Cyperus difformis); assay: Test B flooded paddy test; conditions: for Plant response rating, Flood, Sedge, Umbrella: 250 g ai/ha, flooded paddy test, visual rating on 0 to 100 scale (0 no effect, 100 complete control) after 13 to 15 days; for Plant response rating, Sedge, Umbrella: Flood (flooded paddy test), 13 to 15 days
Method in brief: as §2

[12] = Postemergence, 125 g ai/ha, visual injury, 0 to 100 scale (0 no effect, 100 complete control), approx. ten days
[13] = Postemergence, 500 g ai/ha, 0 to 100 scale, 0 = no effect, 100 = complete control, approx. ten days
[14] = Preemergence, 125 g ai/ha, 0 to 100 scale, 0 = no effect, 100 = complete control
[15] = Preemergence, 500 g ai/ha, visual injury, 0 to 100 scale (0 no effect, 100 complete control), approx. ten days
[16] = 31 g ai/ha, scale 0 to 100 (0 no effect, 100 complete control)
[17] = 62 g ai/ha, scale 0 (no effect) to 100 (complete control), 13 to 15 days
[18] = 125 g ai/ha, visual rating after 13 to 15 days, scale 0 (no effect) to 100 (complete control)
[19] = 31 g ai/ha, scale of 0 to 100 where 0 is no effect and 100 is complete control
[20] = 62 g ai/ha, scale 0 to 100, 0 is no effect, 100 is complete control
[21] = 125 g ai/ha, scale 0 to 100, 0 is no effect, 100 is complete control

Compound: O=C1CCCC(O)=C1C(=O)c1cnc(-c2cccc(Cl)c2)n(-c2ccccc2)c1=O [Compound 34]
- Barnyardgrass plant response rating [1, 12]: 90
- Plant response rating, Barnyardgrass [1, 13]: 100
- Plant response rating, Barnyardgrass [1, 14]: 10
- Plant response rating, Barnyardgrass [1, 15]: 100
- Corn plant response rating (corn (Zea mays); [12]): 0
- Plant response rating, Corn (corn (Zea mays); [13]): 30
- Plant response rating, Corn (corn (Zea mays); [14]): 0
- Plant response rating, Corn (corn (Zea mays); [15]): 0
- Foxtail, Giant plant response rating [2, 12]: 90
- Plant response rating, Foxtail, Giant [2, 13]: 100
- Plant response rating, Foxtail, Giant [2, 14]: 60
- Plant response rating, Foxtail, Giant [2, 15]: 100
- Crabgrass, Large plant response rating [3, 12]: 90
- Plant response rating, Crabgrass, Large [3, 13]: 100
- Plant response rating, Crabgrass, Large [3, 14]: 90
- Plant response rating, Crabgrass, Large [3, 15]: 100
- Morningglory plant response rating [4, 12]: 80
- Plant response rating, Morningglory [4, 13]: 100
- Plant response rating, Morningglory [4, 14]: 10
- Plant response rating, Morningglory [4, 15]: 60
- Pigweed plant response rating [5, 12]: 100
- Plant response rating, Pigweed [5, 13]: 100
- Plant response rating, Pigweed [5, 14]: 90
- Plant response rating, Pigweed [5, 15]: 100
- Velvetleaf plant response rating [6, 12]: 100
- Plant response rating, Velvetleaf [6, 13]: 100
- Plant response rating, Velvetleaf [6, 14]: 50
- Plant response rating, Velvetleaf [6, 15]: 100
- Wheat plant response rating [7, 12]: 0
- Plant response rating, Wheat [7, 13]: 30
- Plant response rating, Wheat [7, 14]: 0
- Plant response rating, Wheat [7, 15]: 0
- Plant response rating, Barley [8, 16]: 0
- Plant response rating, Barley [8, 17]: 30
- Plant response rating, Barley [8, 18]: 30
- Barley plant response rating [8]: 30
- Plant response rating, Flood, Barnyardgrass [9]: 0
- Plant response rating, Barnyardgrass [9, 19]: 0
- Plant response rating, Barnyardgrass [9, 20]: 0
- Plant response rating, Barnyardgrass [9, 21]: 0
- Plant response rating, Flood, Ducksalad [10]: 65
- Plant response rating, Ducksalad [10, 19]: 0
- Plant response rating, Ducksalad [10, 20]: 0
- Plant response rating, Ducksalad [10, 21]: 30
- Plant response rating, Flood, Rice (rice (Oryza sativa)): 0
- Plant response rating, Rice (rice (Oryza sativa); [19]): 0
- Plant response rating, Rice (rice (Oryza sativa); [20]): 0
- Plant response rating, Rice (rice (Oryza sativa); [21]): 0
- Plant response rating, Flood, Sedge, Umbrella [11]: 40
- Plant response rating, Sedge, Umbrella [11, 19]: 0
- Plant response rating, Sedge, Umbrella [11, 20]: 0
- Plant response rating, Sedge, Umbrella [11, 21]: 0

Compound: Cc1ccc(-n2c(-c3cccc(Cl)c3)ncc(C(=O)C3=C(O)CCCC3=O)c2=O)cc1 [Compound 39]
- Barnyardgrass plant response rating [1, 12]: 60
- Plant response rating, Barnyardgrass [1, 13]: 90
- Plant response rating, Barnyardgrass [1, 14]: 10
- Plant response rating, Barnyardgrass [1, 15]: 90
- Corn plant response rating (corn (Zea mays); [12]): 0
- Plant response rating, Corn (corn (Zea mays); [13]): 40
- Plant response rating, Corn (corn (Zea mays); [14]): 0
- Plant response rating, Corn (corn (Zea mays); [15]): 0
- Foxtail, Giant plant response rating [2, 12]: 80
- Plant response rating, Foxtail, Giant [2, 13]: 90
- Plant response rating, Foxtail, Giant [2, 14]: 50
- Plant response rating, Foxtail, Giant [2, 15]: 90
- Crabgrass, Large plant response rating [3, 12]: 80
- Plant response rating, Crabgrass, Large [3, 13]: 90
- Plant response rating, Crabgrass, Large [3, 14]: 60
- Plant response rating, Crabgrass, Large [3, 15]: 90
- Morningglory plant response rating [4, 12]: 80
- Plant response rating, Morningglory [4, 13]: 90
- Plant response rating, Morningglory [4, 14]: 40
- Plant response rating, Morningglory [4, 15]: 60
- Pigweed plant response rating [5, 12]: 100
- Plant response rating, Pigweed [5, 13]: 100
- Plant response rating, Pigweed [5, 14]: 60
- Plant response rating, Pigweed [5, 15]: 90
- Velvetleaf plant response rating [6, 12]: 100
- Plant response rating, Velvetleaf [6, 13]: 100
- Plant response rating, Velvetleaf [6, 14]: 70
- Plant response rating, Velvetleaf [6, 15]: 90
- Wheat plant response rating [7, 12]: 0
- Plant response rating, Wheat [7, 13]: 0
- Plant response rating, Wheat [7, 14]: 0
- Plant response rating, Wheat [7, 15]: 0
- Plant response rating, Barley [8, 16]: 0
- Plant response rating, Barley [8, 17]: 0
- Plant response rating, Barley [8, 18]: 0
- Barley plant response rating [8]: 10
- Plant response rating, Flood, Barnyardgrass [9]: 30
- Plant response rating, Barnyardgrass [9, 20]: 0
- Plant response rating, Flood, Ducksalad [10]: 90
- Plant response rating, Ducksalad [10, 20]: 80
- Plant response rating, Flood, Rice (rice (Oryza sativa)): 15
- Plant response rating, Rice (rice (Oryza sativa); [20]): 0
- Plant response rating, Flood, Sedge, Umbrella [11]: 90
- Plant response rating, Sedge, Umbrella [11, 20]: 90
